Patent US20060121040A1, “Compositions and methods for treating neuroendocrine tumors” (Wisconsin Alumni Research Foundation, priority 2004, published 2006)
Entries after “also recorded” stand apart in the source; their conditions may differ. Where two headings read alike, the source gives them in different places.

Tests used:
[1] = tested on: human achaete-scute homolog-1 (hASH1); experiment: NE marker hASH1 in medullary thyroid cancer TT cells; type: cell-based; details: SB216763 0-50 μM
[2] = tested on: chromogranin A (CgA); experiment: NE marker chromogranin A in medullary thyroid cancer TT cells; type: cell-based, human; details: SB216763 0-50 μM
[3] = tested on: medullary thyroid cancer TT cells; experiment: Cellular growth of medullary thyroid cancer cells; type: cell-based, human
[4] = tested on: H727 cells; experiment: Cytotoxicity assay (Cell Titer Glo), H727 cells; type: cell-based, human; details: ZM336372 tested 0 to 200 μmol/L
Protocol: (§1) Cells (H727 and BON) were harvested by trypsinization and plated at a cell density of 3,000 cells per well of each microtiter plate. Cells were grown for 4 hours at 37° C. to allow cell attachment to occur before compound addition. Doxorubicin (control) and ZM336372 were dissolved in DMSO. […] Treatments were done in duplicate. Cells were incubated with the test compounds for 72 hours before reading the assay. Then processing and calculation were done according to manufacturer's directions for Cell Titer Glo Assay (Promega, Madison, Wis.).

[5] = molecular target: T1, GSK3B (Homo sapiens, UniProt P49841); experiment: Phosphorylated GSK3B in NE tumor cells (BON and TT) treated with ZM336372 (FIG. 7); type: cell-based; details: ZM336372 0-50 μM
T1 construct: treatment of NE tumor cells with ZM336372 (0-50 μM); endogenous in cells; host or cells: BON and TT cells

[6] = tested on: BON cells; experiment: Cell proliferation assay (MTT) in BON cells; type: cell-based, human; details: 100 μmol/L vs DMSO, day 4 to day 10
Protocol: (§2) Cells were trypsinized and plated in triplicate to 24-well plates and allowed to adhere overnight. […] Media were changed every 2 days with new treatment. […] Absorbance was determined using spectrophotometer at a wavelength of 540 nm.

[7] = tested on: Raf-1/MEK/ERK system; experiment: Western analysis for Raf-1 pathway activation in H727 cells; type: cell-based, human
Protocol: (§3) H727 and BON cells were plated at 50% to 60% confluence in 100-mm cell culture dishes and incubated overnight. Cells were treated with ZM336372 (BioMol, Plymouth Meeting, Pa.) in different concentrations for up to 6 days. Of note, treatments were done in serum-containing medium. Furthermore, the DMSO concentration never exceeded 2% in all treatment groups. ZM336372 at 500 μmol/L concentrations were used only in the toxicity experiments. Stock ZM336372 was made at higher concentration to reduce DMSO toxicity.

[8] = tested on: chromogranin A; experiment: Western analysis of chromogranin A in BON cells; type: cell-based, human; details: 20 and 100 μmol/L, 2 d
Protocol: as §3
(§4) Changes in chromogranin A levels are known to be concordant with alterations in other neuroendocrine hormones such as histamine and serotonin (Sippel & Chen, Surgery 2002;132:1035-9). Additionally, hASH1 is expressed in most neuroendocrine tumors and correlates with neuroendocrine hormone levels as previously described. Therefore, to determine if ZM336372 can reduce chromogranin A and hASH1, pulmonary H727 and gastrointestinal BON carcinoid cells were treated with ZM336372. […] Furthermore, to determine when chromogranin A depletion occurs, H727 cells were treated with ZM336372 at different time intervals.

[9] = tested on: H727 cells; experiment: Drug toxicity assay, propidium iodide exclusion, H727 cells; type: cell-based, human
Protocol: Briefly, cells were trypsinized and plated in a 6-well plate at 1 to 2×10^6 in triplicate and allowed to adhere overnight. […] As a control, DMSO was added. After incubation, the medium was removed and cells were trypsinized and added to removed medium. Cells were incubated on ice and 2.5 Ag/mL propidium iodide (Sigma) was added 5 minutes before flow cytometry (17). Data was acquired using a FACSCalibur bench top flow cytometer (Becton Dickinson, San Jose, Calif.) using CellQuest acquisition and analysis software.

[10] = tested on: BON cells; experiment: Drug toxicity assay, propidium iodide exclusion, BON cells; type: cell-based, human; details: 63 to 500 μmol/L, 2 days
Protocol: Briefly, cells were trypsinized and plated in a 6-well plate at 1 to 2×10^6 in triplicate and allowed to adhere overnight. Then the media was replaced with fresh media containing various concentrations (31.25, 62.5, 125, 250, and 500 μmol/L) of ZM336372 and incubated for up to 3 days. As a control, DMSO was added. After incubation, the medium was removed and cells were trypsinized and added to removed medium. Cells were incubated on ice and 2.5 Ag/mL propidium iodide (Sigma) was added 5 minutes before flow cytometry (17). Data was acquired using a FACSCalibur bench top flow cytometer (Becton Dickinson, San Jose, Calif.) using CellQuest acquisition and analysis software.

[11] = tested on: p18; experiment: Western analysis of cell cycle inhibitor p18 in H727 cells; details: 20 and 100 μmol/L, 2 days
Protocol: (§5) Cellular extracts were prepared and quantified by bicinchoninic acid protein assay kit (Pierce, Rockford, Ill.) as previously described (Sippel & Chen, Surgery 2002;132:1035-9). Denatured proteins (30-50 μg) from each sample underwent electrophoresis on a SDS polyacrylamide gel and transferred to a nitrocellulose membranes (Schleicher and Schuell, Keene, N.H.). Membranes were blocked for 1 hour in milk solution (1×PBS, 5% nonfat dry milk, 0.05% Tween 20) and incubated at 4° C. overnight with primary antibodies. The following primary antibody dilutions were used: phospho-ERK1/2 (1:1,000), phospho-MEK (1:1,000), phospho-Raf-1 (Ser338; 1:1,000), p21 and p18, (1:1,000) (Cell Signaling Technology, Beverly, Mass.), Chromogranin A (1:2,000; Zymed Laboratories, San Francisco, Calif.), MASH-1 (1:1000, BD Pharmingen, San Diego, Calif.), and G3PDH (1:10,000; Trevigen, Gaithersburg, Md.). After primary antibody incubation, membranes were washed 3×5 minutes in PBS-T wash buffer (1×PBS and 0.05% Tween 20). Then the membranes were incubated with either 1:2,000 dilution of goat anti-rabbit or goat anti-mouse secondary antibody (Cell Signaling Technology) depending on the source of the primary antibody for 1 hour at room temperature. […]

[12] = tested on: H727 cells; experiment: Cell proliferation assay (MTT) in H727 cells; type: cell-based, human; details: 100 μmol/L vs DMSO, up to 16 days, serum-containing medium
Protocol: as §2

[13] = tested on: hASH1; experiment: Western analysis of hASH1 in H727 cells; type: cell-based, human
Protocol: as §3, §4

[14] = tested on: chromogranin A; experiment: Western analysis of chromogranin A in H727 cells; type: cell-based, human
Protocol: as §3, §4

[15] = tested on: ERK1/2; experiment: Phosphorylated ERK1/2 in NE tumor cells (BON and TT) treated with ZM336372 (FIG. 7); type: cell-based, human; details: ZM336372 0-50 μM
[16] = tested on: hASH1; experiment: Western analysis of hASH1 in BON cells; type: cell-based, human; details: 20 and 100 μmol/L, 2 d
Protocol: as §3, §4

[17] = tested on: p21; experiment: Western analysis of cell cycle inhibitor p21 in H727 cells; type: cell-based, human; details: 20 and 100 μmol/L, 2 days
Protocol: as §5

[18] = tested on: Raf-1/MEK/ERK system; experiment: Western analysis for Raf-1 pathway activation in BON cells; type: cell-based, human; details: increasing doses (20 and 100 μmol/L), 2 d
Protocol: as §3

[19] = tested on: BON cells; experiment: Cytotoxicity assay (Cell Titer Glo), BON cells; type: cell-based, human; details: 72 hours, ZM336372 tested 0 to 200 μmol/L
Protocol: as §1

T1 sequence (P49841 whole entry): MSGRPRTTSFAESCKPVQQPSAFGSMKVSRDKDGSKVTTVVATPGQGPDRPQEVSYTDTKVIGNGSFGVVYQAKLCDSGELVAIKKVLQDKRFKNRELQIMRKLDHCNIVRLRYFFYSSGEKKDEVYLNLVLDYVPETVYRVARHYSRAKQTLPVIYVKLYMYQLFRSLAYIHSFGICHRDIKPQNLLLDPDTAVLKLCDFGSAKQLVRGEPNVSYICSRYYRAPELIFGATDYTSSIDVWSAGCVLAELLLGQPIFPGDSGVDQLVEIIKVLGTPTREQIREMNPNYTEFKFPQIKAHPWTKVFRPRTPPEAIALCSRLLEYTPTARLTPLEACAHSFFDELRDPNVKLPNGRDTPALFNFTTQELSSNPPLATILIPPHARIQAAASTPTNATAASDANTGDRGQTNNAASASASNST

Cn1cc(C2=C(c3ccc(Cl)cc3Cl)C(=O)NC2=O)c2ccccc21 [SB216763]
hASH1 [1]: suppression; also recorded: reduction
chromogranin A production [2]: suppression; also recorded: reduction
TT cell growth ([3]; SB216763 0-50 μM): suppression

Cc1ccc(NC(=O)c2cccc(N(C)C)c2)cc1NC(=O)c1ccc(O)cc1 [ZM336372]
IC50 ([4]; 72 hours): did not produce enough cellular cytotoxicity to estimate an IC50
levels of phosphorylated GSK3B [5]: increased levels
cell proliferation [6]: growth suppression; also recorded: inhibited
MEK1/2 phosphorylation at days 4 and 6 ([7]; 100 μmol/L): sustained; also recorded: greater than controls out to 6 d
Raf-1 phosphorylation at Ser338 ([7]; 20 and 100 μmol/L, 2 days): phosphorylated; also recorded: dose-dependent increases
MEK1/2 and ERK1/2 phosphorylation ([7]; 20 and 100 μmol/L, 2 days, vs DMSO): activation; also recorded: dose-dependent increases
chromogranin A level [8]: reduction; also recorded: dose-dependent decrease
cytolysis ([9]; 20-100 μmol/L): < 20%
viability ([9]; H727, 20 to 100 μmol/L vs DMSO, 2 d): significant viability was maintained
cells remaining viable [10]: ~70%
p18 expression [11]: induced; also recorded: significant induction
cell proliferation [12]: growth suppressed; also recorded: inhibited
first recognized reduction in hASH1 ([13]; 100 μmol/L): 1 h
hASH1 level ([13]; 20 and 100 μmol/L, 2 d): reduction; also recorded: dose-dependent decrease
time of greatest comparative loss of chromogranin A ([14]; 100 μmol/L): 48 h
lasting effect on chromogranin A (days 2, 4 and 6) ([14]; 100 μmol/L vs DMSO): maintained to 6 days; also recorded: persistent reduction
earliest detection of reduction of chromogranin A ([14]; 100 μmol/L, 10 min, 1, 12, 24, 48 h): 1 h
chromogranin A level ([14]; 20 and 100 μmol/L, 2 d): reduction; also recorded: dose-dependent decrease
levels of phosphorylated ERK1/2 [15]: increased levels
hASH1 level [16]: reduction; also recorded: dose-dependent decrease
growth of other neuroendocrine tumor cell lines ([3]; ZM336372, medullary thyroid cancer cells, data not shown): inhibited growth
p21 expression [17]: induced; also recorded: significant induction
ERK1/2 and MEK1/2 phosphorylation [18]: strong activation; also recorded: dose-dependent increases
IC50 [19]: did not produce enough cellular cytotoxicity to estimate an IC50

COc1cccc2c1C(=O)c1c(O)c3c(c(O)c1C2=O)C[C@@](O)(C(=O)CO)C[C@@H]3O[C@H]1C[C@H](N)[C@H](O)[C@H](C)O1 [doxorubicin]
IC50 ([4]; Homo sapiens, NCI-H727, 72 hours, read-out: IC50): 1100 nM
IC50 ([19]; Homo sapiens, read-out: IC50): 1400 nM
